Experimental data reported in the supplement of paper PMC11208160.

test: recombinant UMI read abundance after kanamycin selection (control-corrected) (log10(CPM+1)); higher = more efficient recombination; extreme values may be limits of the assay; sequences stand for … in AGTGCAGAGAAAATCGGCCAGTTTTCTCTGCCTGCAGTCCGCATGCCGTGGGACCCCTTGGGTTCTAACCTGTTGCCTAGATTTATGCAGCGGACTGCCTTTCTCCCAAAGTGATAAACCGG…AGGTTGGTTTCACT; site = the 11-nt donor
Outline: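 Sequencing read counts were converted to CPM, averaged over two replicates and scaled by control-derived factors. Results are given as log10(CPM+1). The reads covered the donor–target junction of recombinant UMIs from a pooled Escherichia coli screen of donor and donor-binding-loop pairs for the IS621 bridge recombinase.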
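Further: IS621 bridge recombinase in Escherichia coli cells against a fixed T5 target plasmid.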

Row | Sequence | recombinant UMI read abundance (log10)
1 | GTAGTCACATGGACCGGTTTTCCCGGTAATCCGTATTTGCG (site GTAGTCTCTCG) | 2.62
2 | GTAGTGGCATGGACCGGTTTTCCCGGTAATCCGTATTTGCG (site GTAGTAGCTCG) | 2.37
3 | GTAGTGGCATGGACCGGTTTTCCCGGTAATCCGTATTTGCG (site GTAGTCGCTCG) | 1.25
4 | GTAGTGGCATGGACCGGTTTTCCCGGTAATCCGTATTTGCG (site GTAGTGGCTCG) | 2.18
5 | GTAGTGGCATGGACCGGTTTTCCCGGTAATCCGTATTTGCG (site GTAGTTGCTCG) | 2.06
6 | GTATACCCATGGACCGGTTTTCCCGGTAATCCGTATTTGTC (site GTATACCCTGA) | 1.03
7 | GTATAGTCATGGACCGGTTTTCCCGGTAATCCGTATTTGGT (site GTATAGTCTAC) | 2.67
8 | GTATCGTCATGGACCGGTTTTCCCGGTAATCCGTATTTGTC (site GTATCGTCTGA) | 3.21
9 | GTATGACCATGGACCGGTTTTCCCGGTAATCCGTATTTGGC (site GTATGACCTGC) | 0
10 | GTATGCACATGGACCGGTTTTCCCGGTAATCCGTATTTGAA (site GTATGCACTTA) | 0.217
11 | GTATGCACATGGACCGGTTTTCCCGGTAATCCGTATTTGAA (site GTATGCACTTC) | 0.0775
12 | GTATGCACATGGACCGGTTTTCCCGGTAATCCGTATTTGAA (site GTATGCACTTG) | 0.0145
13 | GTATGCACATGGACCGGTTTTCCCGGTAATCCGTATTTGAA (site GTATGCACTTT) | 1.53
14 | GTATGCGCATGGACCGGTTTTCCCGGTAATCCGTATTTGAA (site GTATGCGCTTT) | 1.66
15 | GTATGCGCATGGACCGGTTTTCCCGGTAATCCGTATTTGTA (site GTATGCACTTA) | 1.8
16 | GTATGCGCATGGACCGGTTTTCCCGGTAATCCGTATTTGTA (site GTATGCCCTTA) | 0.772
17 | GTATGCGCATGGACCGGTTTTCCCGGTAATCCGTATTTGTA (site GTATGCGCTTA) | 2.35
18 | GTATGCGCATGGACCGGTTTTCCCGGTAATCCGTATTTGTA (site GTATGCTCTTA) | 1.33
19 | GTATGGACATGGACCGGTTTTCCCGGTAATCCGTATTTGTA (site GTATGAACTTA) | 2.39
20 | GTATGGACATGGACCGGTTTTCCCGGTAATCCGTATTTGTA (site GTATGCACTTA) | 0.0152
21 | GTATGGACATGGACCGGTTTTCCCGGTAATCCGTATTTGTA (site GTATGGACTTA) | 1.9
22 | GTATGGACATGGACCGGTTTTCCCGGTAATCCGTATTTGTA (site GTATGTACTTA) | 0.44
23 | GTCACAACATGGACCGGTTTTCCCGGTAATCCGTATTTGAC (site GTCACAACTGT) | 1.36
24 | GTCACGACATGGACCGGTTTTCCCGGTAATCCGTATTTGAC (site GTCACGACTGT) | 1.96
25 | GTCAGAACATGGACCGGTTTTCCCGGTAATCCGTATTTGAT (site GTCAGAACTAT) | 2.16

Row | Sequence | recombinant UMI read abundance (log10)
26 | GTCAGACCATGGACCGGTTTTCCCGGTAATCCGTATTTGGT (site GTCAGACCTAC) | 0
27 | GTCCAAGCATGGACCGGTTTTCCCGGTAATCCGTATTTGAG (site ATCCAAGCTCT) | 0.677
28 | GTCCAAGCATGGACCGGTTTTCCCGGTAATCCGTATTTGAG (site CTCCAAGCTCT) | 0
29 | GTCCAAGCATGGACCGGTTTTCCCGGTAATCCGTATTTGAG (site GTCCAAGCTCT) | 0.618
30 | GTCCAAGCATGGACCGGTTTTCCCGGTAATCCGTATTTGAG (site TTCCAAGCTCT) | 0.088
31 | GTCCACCCATGGACCGGTTTTCCCGGTAATCCGTATTTGTT (site GACCACCCTAA) | 0.0143
32 | GTCCACCCATGGACCGGTTTTCCCGGTAATCCGTATTTGTT (site GCCCACCCTAA) | 0.0129
33 | GTCCACCCATGGACCGGTTTTCCCGGTAATCCGTATTTGTT (site GGCCACCCTAA) | 0.0212
34 | GTCCACCCATGGACCGGTTTTCCCGGTAATCCGTATTTGTT (site GTCCACCCTAA) | 0.0175
35 | GTCCATTCATGGACCGGTTTTCCCGGTAATCCGTATTTGCT (site GTCCATTCTAG) | 0.671
36 | GTCCCCGCATGGACCGGTTTTCCCGGTAATCCGTATTTGAG (site GTCCCCGCTCT) | 0.468
37 | GTCCCGTCATGGACCGGTTTTCCCGGTAATCCGTATTTGGT (site GTCCCGTCTAC) | 0.849
38 | GTCGACCCATGGACCGGTTTTCCCGGTAATCCGTATTTGAG (site GTCGACCCTCT) | 0.0157
39 | GTCGGTCCATGGACCGGTTTTCCCGGTAATCCGTATTTGTA (site GTCGGTCCTTA) | 0.0236
40 | GTCGTTCCATGGACCGGTTTTCCCGGTAATCCGTATTTGGT (site GTAGTTCCTAC) | 0
41 | GTCGTTCCATGGACCGGTTTTCCCGGTAATCCGTATTTGGT (site GTCGTTCCTAC) | 0.0042
42 | GTCGTTCCATGGACCGGTTTTCCCGGTAATCCGTATTTGGT (site GTGGTTCCTAC) | 0.0048
43 | GTCGTTCCATGGACCGGTTTTCCCGGTAATCCGTATTTGGT (site GTTGTTCCTAC) | 0.00325
44 | GTCTGACCATGGACCGGTTTTCCCGGTAATCCGTATTTGAG (site CAGGCTGCTTA) | 0.0145
45 | GTCTGCCCATGGACCGGTTTTCCCGGTAATCCGTATTTGAG (site GTCTGCCCTCT) | 0.0162
46 | GTCTTACCATGGACCGGTTTTCCCGGTAATCCGTATTTGCC (site GTCTTACCTGG) | 0
47 | GTCTTGACATGGACCGGTTTTCCCGGTAATCCGTATTTGTG (site GTCTTGACTCA) | 0.296
48 | GTCTTGTCATGGACCGGTTTTCCCGGTAATCCGTATTTGTC (site GTCTTGTCTGA) | 1.66
49 | GTGACGCCATGGACCGGTTTTCCCGGTAATCCGTATTTGAA (site GTGACGCCTTT) | 0.0255
50 | GTGAGCGCATGGACCGGTTTTCCCGGTAATCCGTATTTGAG (site GTGAGCGCTCT) | 1.68

Row | Sequence | recombinant UMI read abundance (log10)
51 | GTGCAGGCATGGACCGGTTTTCCCGGTAATCCGTATTTGGT (site GTGCAAGCTAC) | 1.77
52 | GTGCAGGCATGGACCGGTTTTCCCGGTAATCCGTATTTGGT (site GTGCACGCTAC) | 0.00349
53 | GTGCAGGCATGGACCGGTTTTCCCGGTAATCCGTATTTGGT (site GTGCAGGCTAC) | 0.659
54 | GTGCAGGCATGGACCGGTTTTCCCGGTAATCCGTATTTGGT (site GTGCATGCTAC) | 0.279
55 | GTGCAGGCATGGACCGGTTTTCCCGGTAATCCGTATTTGTG (site GTGAAGGCTCA) | 1.5
56 | GTGCAGGCATGGACCGGTTTTCCCGGTAATCCGTATTTGTG (site GTGCAGGCTCA) | 1.17
57 | GTGCAGGCATGGACCGGTTTTCCCGGTAATCCGTATTTGTG (site GTGGAGGCTCA) | 0.393
58 | GTGCAGGCATGGACCGGTTTTCCCGGTAATCCGTATTTGTG (site GTGTAGGCTCA) | 0.475
59 | GTGCATACATGGACCGGTTTTCCCGGTAATCCGTATTTGGT (site GTGCATACTAC) | 1.51
60 | GTGCATACATGGACCGGTTTTCCCGGTAATCCGTATTTGGT (site GTGCATCCTAC) | 0.00833
61 | GTGCATACATGGACCGGTTTTCCCGGTAATCCGTATTTGGT (site GTGCATGCTAC) | 0.555
62 | GTGCATACATGGACCGGTTTTCCCGGTAATCCGTATTTGGT (site GTGCATTCTAC) | 0.00888
63 | GTGCATGCATGGACCGGTTTTCCCGGTAATCCGTATTTGCT (site GTGCATGCTAA) | 0.00274
64 | GTGCATGCATGGACCGGTTTTCCCGGTAATCCGTATTTGCT (site GTGCATGCTAC) | 0
65 | GTGCATGCATGGACCGGTTTTCCCGGTAATCCGTATTTGCT (site GTGCATGCTAG) | 2.86
66 | GTGCATGCATGGACCGGTTTTCCCGGTAATCCGTATTTGCT (site GTGCATGCTAT) | 0.999
67 | GTGCCGACATGGACCGGTTTTCCCGGTAATCCGTATTTGAC (site GTGCCGACTGT) | 2.4
68 | GTGCGTGCATGGACCGGTTTTCCCGGTAATCCGTATTTGGT (site GTGCATGCTAC) | 0.26
69 | GTGCGTGCATGGACCGGTTTTCCCGGTAATCCGTATTTGGT (site GTGCCTGCTAC) | 0.00736
70 | GTGCGTGCATGGACCGGTTTTCCCGGTAATCCGTATTTGGT (site GTGCGTGCTAC) | 0.346
71 | GTGCGTGCATGGACCGGTTTTCCCGGTAATCCGTATTTGGT (site GTGCTTGCTAC) | 0.00274
72 | GTGCTCCCATGGACCGGTTTTCCCGGTAATCCGTATTTGAC (site GTGCTCCCTGT) | 1.9
73 | GTGGACGCATGGACCGGTTTTCCCGGTAATCCGTATTTGAG (site GTGGACGCTCT) | 1.56
74 | GTGGACGCATGGACCGGTTTTCCCGGTAATCCGTATTTGTG (site GTGGAAGCTCA) | 1.41
75 | GTGGACGCATGGACCGGTTTTCCCGGTAATCCGTATTTGTG (site GTGGACGCTCA) | 1.56
